# Data taken from US20090156657A1, “ANTI-INFLAMMATORY COMPOSITION” (Ajinomoto Co., Inc., priority 2006, published 2009).
# Assays:
# [1] = IBD model mouse: body weight, ingested feed, water drunk; format: in vivo; conditions: IBD model mice
# Text: 4 days before IL-10 deficient cell transplantation, total 40 SCID mice (7-week-old, were divided into the following 4 groups 1) to 4) (10 mice in each group) and acclimation to a control diet was simultaneously started. Immediately after cell transfer, the feed was changed to the test diet shown in Table 4, and free ingestion was allowed for 3 weeks. The safflower seed extract powder was the same as that in Example 8, and contained 50 wt % of γ-cyclodextrin. N-Feruloylserotonin (FS) was synthesized according to the method of Experimental Example 1. During the test diet ingestion period, the body weight, the amount of ingested feed and the amount of water drunk were measured 3 times a week to monitor the onset of the disease.
# 1) Normal group (normal SCID mice×control diet) 2) Control group (IL-10 deficient cell-transplanted SCID mice×control diet) 3) SSE group (IL-10 deficient cell-transplanted SCID mice×SSE diet*) 4) FS group (IL-10 deficient cell-transplanted SCID mice×FS diet**) *containing FS and p-coumaroyl serotonin (CS) at 0.10 and 0.13 wt %, respectively (based on aglycone) (total serotonin derivative content=[…]) **containing 0.4 wt % of FS aglycone
# [2] = system: U-937 monocyte cells / HAEC; experiment: Monocyte (U-937) adhesion to HAEC cells; format: cell-based, human; conditions: HAEC pre-incubated 5 or 10 μM 24 h, 25 mM glucose 4 h; FIG. 5
# Protocol: HAEC cells proliferated to confluence in a 24 well microplate were pre-incubated with CS and FS (5 or 10 μM each) for 24 hours and stimulated with 25 mM glucose for 4 hours. The cell layer was washed with Hanks solution, and then a suspension (1×10^6/mL, 200 μL) of U-937 monocyte cells (purchased from ATCC) was added, and the mixture was incubated at 37° C. for 30 minutes. After washing again, the cells were fixed with 1% para-formaldehyde and the number of U-937 cells attached onto HAEC was counted under a microscope (20 fields). The experiment was performed 3 times and the results are shown as an average value thereof. An experiment using fluorescence-labeled U-937 cells was also performed. To be specific, U-937 cells were incubated (37° C., 1 hour) in the presence of 10 μM 2′,7′-bis(2-carboxyethyl)-5(6)-carboxyfluorescein acetoxymethylester (BCECF-AM, Molecular Probes) and washed by centrifugation. Fluorescence-labeled U-937 cells (1×10^6/mL) were added to HAEC cells, and the mixture was incubated at 37° C. for 1 hour. The floating U-937 cells were removed, the plate was washed with PBS buffer and treated with 1% Triton X for 2 hours. The fluorescence amount of the attached cells was quantified (Ex. 503 nm, Em. 525 nm) using a fluorescence plate reader (Bio-Rad, Fluoromark).
# NF-κB (p65) = experiment: Activation of NF-κB (nuclear translocation of p65) in HAEC stimulated with high glucose; format: cell-based, human; conditions: pre-treatment 5 and 10 μM 24 h, 25 mM glucose 2 h, FIG. 1
# Protocol: In the present invention, the term “suppression of NF-κB activation” means suppression of the translocation of NF-κB into the nucleus. The suppression of the translocation of NF-κB into the nucleus can be confirmed by the method described in Example 1. To be specific, a test substance is added to a culture medium of human aortic endothelial cells, the cells are incubated for a predetermined time, the nucleus is extracted from the aforementioned cells stimulated with glucose, and activated NF-κB (p65) translocated into the nucleus is detected. Using the cells before glucose stimulation, wherein NF-κB is not activated, as a negative control and the cells stimulated with glucose and free of addition of a test substance as a positive control, when the detection level of the aforementioned p65 is closer to the negative control than to the positive control, NF-κB activation is evaluated to have been suppressed.
# Human aortic endothelial cells (HAEC) were purchased from Clonetics Corp, and the cells cultured for 3-4 passages (37° C., under 5% carbon dioxide gas atmosphere) were used for the experiment. […] Nucleus was extracted from the cells using Nuclear Extract Kit (Active Motif), and then the activated NF-κB (p65) translocated into the nucleus was detected by TransAM NF-κB p65 Kit (Active Motif).
smiles,measurement,setting,value
"COc1cc(/C=C/C(=O)NCCc2c[nH]c3ccc(O)cc23)ccc1O [FS, N-feruloyl serotonin]",body weight change rate (day 0 = 100),"[1]; day 21 vs day 0, mean ± SEM",112.5 ± 1.2
same,"body weight, completion of test diet ingestion (day 21)",[1]; mean ± SEM,20.6 ± 0.4 g
same,"body weight, start of test diet ingestion (day 0)","[1]; mean ± SEM, baseline",18.3 ± 0.3 g
same,number of U-937 cells attached onto HAEC (cell count),[2],decreased the number of attached cells in a serotonin derivative dose-dependent manner
same,nuclear translocation of p65 (activation of NF-κB),NF-κB (p65),significantly suppressed
